From patent US5411964A, “Phenylalanine-glycine compounds having anti-tumor activity, process for preparation thereof, and pharmaceutical composition containing said compounds” (Kureha Chemical Industry Co., Ltd., priority 1992, dated 1995)

Columns and labels:
Sarcoma-180 = assay: Antitumor activity: inhibition of solid Sarcoma-180 tumor implanted subcutaneously in ICR mice; type: in vivo; details: day 22, i.p. 10 times every other day, mg/kg: 5-Fu 15, MP 10, 5-CAU 10, Phe+5-Fu 15+15, Phe+MP 15+10, Phe+5-CAU 15+10, Phe-5-Fu 30, Phe'-5-Fu 30, Phe-MP 20, Phe-5-CAU 20; for Average tumor weight ± SD: control 3.438 ± 1.481, in g (unit assumed)
Procedure: The concentration of the solid tumor cells (Sarcoma-180) was aseptically adjusted to 1×10^6 /0.2 ml with a medium [prepared by filtering 10% bovine fetal serum-added MEM (Eagles' Minimum Essential Medium) for sterilization, and stored at 4° C.] and subcutaneously implanted at the axillas of ICR mice (5 weeks old; females; one group consisting of 10 mice). From the next day, the samples (0.15% physiological saline solution) shown in Table 1 were administered intraperitoneally 10 times every other day. On the 22nd day, the tumors were excised and the inhibition rate (IR) was obtained from the weight of the tumors. The inhibition rate (IR) (%) was calculated by the following formula: […]
wherein T is the average tumor weight of the treated group, and C is the average tumor weight of the control group.

Wistar rats = assay: Acute toxicity, oral forced administration to Wistar rats; type: in vivo; details: 250 mg/kg by forced administration, fasted male Wistar rats, observed until 14 days
Procedure: (1) The conditions in the feeding chamber were arranged to a temperature of 23°±1° C., a relative humidity of 55±5%, a ventilation frequency of 20 times per hour, and a lighting term of 12 hours. Wistar rats (male; five-week old;. 120 to 141 g) were used. The rats were placed in metallic cages having wire walls in the front and bottom thereof, at the rate of 5 rats per one cage. They were allowed food (MF: Oriental Yeast) and water ad libitum.
The conjugate (I-1) of the present invention obtained from Example 1(5) was suspended in a 1.5% methylcellulose aqueous solution. The suspension was administered by force. The amount of the administration was 1 ml per 100 g body weight of animals forced to fast for 18 hours, that is, 250 mg/kg was administered. Symptoms of addiction and survival were observed hourly up to 8 hours after the administration, then twice a day until 14 days after administration.

[1] = test system: pyruvate kinase M2-type isoenzyme; details: low concentration of L-phenylalanine; cited from earlier work

O=c1[nH]cc(F)c(=O)[nH]1 [5-Fu, 5-fluorouracil, reference compound]
IR (inhibition rate from tumor weight) (Sarcoma-180): 57.3%
Average tumor weight ± SD (Sarcoma-180): 1.467 ± 1.437

N[C@@H](Cc1ccccc1)C(=O)NC(C(=O)O)n1cc(F)c(=O)[nH]c1=O (mixture of isomers) [Phe-5-Fu, L-phenylalanyl-2-(5-fluorouracil-1-yl)-D,L-glycine]
Survival / death after administration (Wistar rats): No death was observed
IR (inhibition rate from tumor weight) (Sarcoma-180): 77.6%
Average tumor weight ± SD (Sarcoma-180): 0.770 ± 0.397

N[C@@H](Cc1ccccc1)C(=O)O [L-phenylalanine]
inhibition of M2-type isoenzyme of pyruvate kinase (in words) [1]: selectively inhibited

N[C@@H](Cc1ccccc1)C(=O)NC(C(=O)O)n1cc(N(CCCl)CCCl)c(=O)[nH]c1=O (mixture of isomers) [Phe-5-CAU, L-phenylalanyl-2-[5-(bis(2-chloroethyl)amino)uracil-1-yl]-D,L-glycine]
IR (inhibition rate from tumor weight) (Sarcoma-180): 75.2%
Average tumor weight ± SD (Sarcoma-180): 0.854 ± 0.664

O=c1[nH]cc(N(CCCl)CCCl)c(=O)[nH]1 [5-CAU, 5-[bis(2-chloroethyl)amino]uracil, reference compound]
IR (inhibition rate from tumor weight) (Sarcoma-180): 54.2%
Average tumor weight ± SD (Sarcoma-180): 1.574 ± 1.285

CCOC(=O)C(NC(=O)[C@@H](N)Cc1ccccc1)N[C@@H](Cc1ccc(N(CCCl)CCCl)cc1)C(=O)OC (stereo partly drawn) [Phe-MP, L-phenylalanyl-2-[p-(bis(2-chloroethyl)amino)-L-phenylalaninemethylester-2-yl]-D,L-glycineethylester]
IR (inhibition rate from tumor weight) (Sarcoma-180): 72.6%
Average tumor weight ± SD (Sarcoma-180): 0.943 ± 0.587

N[C@@H](Cc1ccc(N(CCCl)CCCl)cc1)C(=O)O [MP, Melphalan, reference compound]
IR (inhibition rate from tumor weight) (Sarcoma-180): 60.5%
Average tumor weight ± SD (Sarcoma-180): 1.358 ± 1.369

CCOC(=O)C(NC(=O)[C@@H](N)Cc1ccccc1)n1cc(F)c(=O)[nH]c1=O (mixture of isomers) [Phe'-5-Fu, L-phenylalanyl-2-(5-fluorouracil-1-yl)-D,L-glycineethylester]
IR (inhibition rate from tumor weight) (Sarcoma-180): 76.5%
Average tumor weight ± SD (Sarcoma-180): 0.808 ± 0.389
